Measured values taken from PMC7374715, “Conservation of Cdc14 phosphatase specificity in plant fungal pathogens: implications for antifungal development” (Scientific Reports, 2020).
Like-named read-outs stand apart in the source and are kept apart here. Numbered stars: 1 amine (or outer) side, 2 acyl side, 3 side chain; on linkers, the order of the positions; unused ones are H or OH. Square brackets hold non-standard residues; d marks the D form. Ends that are not written are not given here. Peptide text beside a SMILES is read from it. X1 = O=C([C@H](CC(F)(F)P(=O)(O)O)N[*:1])[*:2]; pS = N[C@@H](COP(=O)(O)O)C(=O)O

Columns and labels:
MoCdc14 [1] = target: T1, MoCdc14 (Pyricularia oryzae, UniProt G4MRC9); details: DiFMUP; 0.5 nM enzyme, pH 7.5, 30 °C; mean of 3 ± SD
T1 sequence (G4MRC9 1-474 limits assumed): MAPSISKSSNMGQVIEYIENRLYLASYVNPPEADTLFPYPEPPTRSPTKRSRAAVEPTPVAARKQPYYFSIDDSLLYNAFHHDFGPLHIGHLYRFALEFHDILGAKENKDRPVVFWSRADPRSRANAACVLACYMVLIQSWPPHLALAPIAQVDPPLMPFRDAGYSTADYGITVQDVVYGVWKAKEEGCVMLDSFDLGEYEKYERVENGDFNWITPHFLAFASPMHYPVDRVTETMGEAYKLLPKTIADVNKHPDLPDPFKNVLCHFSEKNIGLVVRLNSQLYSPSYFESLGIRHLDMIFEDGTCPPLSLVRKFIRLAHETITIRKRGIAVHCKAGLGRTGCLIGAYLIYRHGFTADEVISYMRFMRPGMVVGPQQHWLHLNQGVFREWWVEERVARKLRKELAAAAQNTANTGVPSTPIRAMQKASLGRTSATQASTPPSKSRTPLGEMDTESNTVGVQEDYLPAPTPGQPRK

CzCdc14 [2] = details: DiFMUP; 0.5 nM enzyme, pH 7.5, 30 °C; mean of 3 ± SD
Method: All enzyme concentrations were 0.5 nM, except for PsCdc14 and VHR, which were assayed at 2 and 5 nM, respectively. Fluorescence intensity was measured continuously on a Synergy H1 microplate reader (BioTek) with excitation and emission wavelengths set at 358 and 450 nm, respectively. Fluorescence intensity was converted to product concentration using a 6,8-difluoro-4-methylumbelliferone standard curve. Background fluorescence was subtracted from each reaction and initial rates were calculated from the slope of the linear portion of the product concentration versus time plots. kcat and KM were calculated as described above.

MoCdc14 [3] = target: T1, MoCdc14; test: biochemical; set-up: species or system Magnaporthe oryzae
ScCdc14 [4] = target: T2, ScCdc14 (Saccharomyces cerevisiae, UniProt Q00684); test: Enzyme inhibition, DiFMUP assay; type: biochemical
T2 construct: made in house; host or cells: E. coli BL21 AI
T2 sequence (Q00684 1-447 limits assumed): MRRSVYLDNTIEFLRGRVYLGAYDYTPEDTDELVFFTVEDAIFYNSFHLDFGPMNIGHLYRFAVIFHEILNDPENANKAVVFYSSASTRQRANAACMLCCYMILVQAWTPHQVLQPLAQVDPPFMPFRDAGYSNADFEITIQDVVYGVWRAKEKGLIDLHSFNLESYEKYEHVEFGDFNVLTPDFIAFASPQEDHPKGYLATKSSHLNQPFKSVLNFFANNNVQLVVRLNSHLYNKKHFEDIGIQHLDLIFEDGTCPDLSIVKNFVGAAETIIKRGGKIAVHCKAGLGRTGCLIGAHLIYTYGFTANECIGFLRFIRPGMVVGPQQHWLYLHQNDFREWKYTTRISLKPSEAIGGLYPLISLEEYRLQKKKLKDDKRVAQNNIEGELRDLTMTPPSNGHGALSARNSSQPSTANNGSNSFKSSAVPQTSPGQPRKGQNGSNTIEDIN
Excerpt: Measured initial rates were converted to percent activity relative to a reaction lacking pCF2Ser peptide. […] Ki is related to IC50 by the equation Ki = IC50/([S]/KM + 1). Since [S] was equal to KM in our assays, Ki = IC50/2.

MoCdc14 [5] = target: T1, MoCdc14; details: pNPP; 25 mM HEPES pH 7.5, 30 °C; mean of 3 ± SD
CzCdc14 [6] = type: biochemical, Cercospora zeina; details: pNPP; 25 mM HEPES pH 7.5, 30 °C; mean of 3 ± SD
Method: Activities towards varying concentrations of para-nitrophenyl phosphate (pNPP) were measured in 100 µL assay buffer (25 mM HEPES pH 7.5, 2 mM TCEP, 1 mM EDTA, and 150 mM NaCl) at 30 °C. Enzyme concentrations were chosen to achieve absorbance values within the linear response range while satisfying the steady-state assumption where substrate consumption was < 1%. Reactions were initiated by enzyme addition and stopped with 1 N NaOH. Absorbance at 405 nm was measured on a Synergy H1 microplate reader (BioTek) and converted to product concentration using a para-nitrophenol standard curve. Initial rates were plotted as a function of substrate concentration and fit with the Michealis-Menten equation in GraphPad Prism (Version 8) to determine kcat and KM.

CzCdc14 [7] = test: Phosphopeptide steady-state kinetics (Biomol Green); type: biochemical, Cercospora zeina; details: phosphopeptide pS, pH 7.5, 30 °C, mean of 3 ± SD
Method: (§1) Activities towards varying concentrations of the synthetic phosphopeptide HT(pSer)PIKSIG (Genscript Corp) were measured in 50 µL assay buffer at 30 °C essentially as described above for pNPP, except substrate consumption was limited to 10% due to limited assay sensitivity and the reaction was stopped with 100 µL Biomol Green (Enzo Life Sciences).

all Cdc14 homologs = test: MS specificity constant assay, all homologs compared; type: biochemical
Excerpt: (§2) Our primary interest was the conservation of substrate specificity. To define the specificities of the eight fungal pathogen Cdc14 homologs and compare them to the well-characterized ScCdc14, we developed a new assay that uses mass spectrometry (MS) to measure the specificity constant, kcat/KM, for a collection of synthetic phosphopeptide substrates (Fig. 3a). This assay, based on a similar assay for measuring protease specificity, is more sensitive and has a much broader linear dynamic range (Fig. 3b) than the conventional malachite green colorimetric assay used to generate the phosphopeptide data in Table 1. These advantages made it convenient for measuring Cdc14 activity towards substrates whose specificity constants can vary by several orders of magnitude. The assay also increases throughput by allowing simultaneous measurement of kcat/KM for many different substrates. The peptides were based on the Yen1 Ser583 sequence with variations designed to test the importance of the four known ScCdc14 substrate recognition features (phosphoamino acid identity, + 1 Pro, + 3 Lys/Arg, Lys/Arg near + 3). Measurements were made by integrating MS chromatogram peak areas for the phosphorylated and dephosphorylated peptide species after Cdc14 treatment and using those values to calculate the fraction of substrate consumed (Fig. 3c; see “Methods” for details). […]

ScCdc14 [8] = target: T2, ScCdc14; test: MS specificity constant assay; type: biochemical; details: pooled phosphopeptides 375 nM each, 1 to 1,000 nM Cdc14, pH 7.5, 30 °C; LC-MS; mean of 3 ± SD
Excerpt: (§3) Our primary interest was the conservation of substrate specificity. To define the specificities of the eight fungal pathogen Cdc14 homologs and compare them to the well-characterized ScCdc14, we developed a new assay that uses mass spectrometry (MS) to measure the specificity constant, kcat/KM, for a collection of synthetic phosphopeptide substrates (Fig. 3a). This assay, based on a similar assay for measuring protease specificity, is more sensitive and has a much broader linear dynamic range (Fig. 3b) than the conventional malachite green colorimetric assay used to generate the phosphopeptide data in Table 1. These advantages made it convenient for measuring Cdc14 activity towards substrates whose specificity constants can vary by several orders of magnitude. The assay also increases throughput by allowing simultaneous measurement of kcat/KM for many different substrates. The peptides were based on the Yen1 Ser583 sequence with variations designed to test the importance of the four known ScCdc14 substrate recognition features (phosphoamino acid identity, + 1 Pro, + 3 Lys/Arg, Lys/Arg near + 3). Measurements were made by integrating MS chromatogram peak areas for the phosphorylated and dephosphorylated peptide species after Cdc14 treatment and using those values to calculate the fraction of substrate consumed (Fig. 3c; see “Methods” for details). […] Results from this assay were in reasonably good agreement with conventional steady-state kinetic measurements of kcat and KM using a malachite green spectroscopic assay (compare substrate pS in Tables 1 and 2), although the MS assay consistently yielded kcat/KM ~ three to fivefold higher, likely due to sensitivity limitations of the malachite green assay with high affinity substrates.
(§4) kcat/KM measurements can be made on pooled substrate mixtures for characterizing enzymatic specificity, provided substrate concentrations are far below KM[38]. Mass spectrometry is a useful tool for monitoring reaction progress in such mixtures, as long as each substrate and product has a unique mass. […]

CgCdc14 [9] = target: T3, CgCdc14 (Colletotrichum gloeosporioides, UniProt A0A8H4CJA2); test: MS specificity constant assay; type: biochemical; details: pooled phosphopeptides 375 nM each, 1 to 1,000 nM Cdc14, pH 7.5, 30 °C; LC-MS; mean of 3 ± SD
T3 sequence (A0A8H4CJA2 entry or part of it): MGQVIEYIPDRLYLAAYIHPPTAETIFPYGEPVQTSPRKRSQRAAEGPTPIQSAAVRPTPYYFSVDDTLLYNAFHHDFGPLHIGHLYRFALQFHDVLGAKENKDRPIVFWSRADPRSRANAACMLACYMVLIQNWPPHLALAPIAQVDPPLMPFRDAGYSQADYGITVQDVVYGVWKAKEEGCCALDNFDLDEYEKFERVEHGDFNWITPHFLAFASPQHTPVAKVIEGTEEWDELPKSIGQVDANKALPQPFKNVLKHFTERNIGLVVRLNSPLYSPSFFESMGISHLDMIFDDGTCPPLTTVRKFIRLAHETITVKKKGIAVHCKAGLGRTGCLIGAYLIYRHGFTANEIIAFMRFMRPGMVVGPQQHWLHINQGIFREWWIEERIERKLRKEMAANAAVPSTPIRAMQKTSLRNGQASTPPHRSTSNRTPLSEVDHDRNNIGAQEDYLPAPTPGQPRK
Excerpt: as §3, §4

BcCdc14 [10] = target: T4, BcCdc14 (Botrytis cinerea, UniProt A0A384J4N9); test: MS specificity constant assay; type: biochemical; details: pooled phosphopeptides 375 nM each, 1 to 1,000 nM Cdc14, pH 7.5, 30 °C; LC-MS; mean of 3 ± SD
T4 sequence (A0A384J4N9 1-492): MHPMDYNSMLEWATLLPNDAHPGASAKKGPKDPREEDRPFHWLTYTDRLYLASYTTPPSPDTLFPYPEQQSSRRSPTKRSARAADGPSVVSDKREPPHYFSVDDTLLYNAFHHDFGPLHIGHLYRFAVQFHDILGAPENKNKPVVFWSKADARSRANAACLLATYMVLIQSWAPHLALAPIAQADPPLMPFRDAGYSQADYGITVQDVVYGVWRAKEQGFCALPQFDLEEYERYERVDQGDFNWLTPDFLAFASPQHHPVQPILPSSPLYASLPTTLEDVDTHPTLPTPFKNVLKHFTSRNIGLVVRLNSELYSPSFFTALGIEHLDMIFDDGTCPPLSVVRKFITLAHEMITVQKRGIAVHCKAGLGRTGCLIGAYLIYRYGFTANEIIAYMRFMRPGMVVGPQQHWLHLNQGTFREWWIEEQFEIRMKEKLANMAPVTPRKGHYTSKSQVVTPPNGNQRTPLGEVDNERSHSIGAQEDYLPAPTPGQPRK
Excerpt: as §3, §4

AnCdc14 [11] = target: T5, AnCdc14 (Aspergillus niger, UniProt A2QDS6); test: Phosphopeptide steady-state kinetics (Biomol Green); type: biochemical; details: phosphopeptide pS, pH 7.5, 30 °C, mean of 3 ± SD
T5 sequence (A2QDS6 1-476 limits assumed): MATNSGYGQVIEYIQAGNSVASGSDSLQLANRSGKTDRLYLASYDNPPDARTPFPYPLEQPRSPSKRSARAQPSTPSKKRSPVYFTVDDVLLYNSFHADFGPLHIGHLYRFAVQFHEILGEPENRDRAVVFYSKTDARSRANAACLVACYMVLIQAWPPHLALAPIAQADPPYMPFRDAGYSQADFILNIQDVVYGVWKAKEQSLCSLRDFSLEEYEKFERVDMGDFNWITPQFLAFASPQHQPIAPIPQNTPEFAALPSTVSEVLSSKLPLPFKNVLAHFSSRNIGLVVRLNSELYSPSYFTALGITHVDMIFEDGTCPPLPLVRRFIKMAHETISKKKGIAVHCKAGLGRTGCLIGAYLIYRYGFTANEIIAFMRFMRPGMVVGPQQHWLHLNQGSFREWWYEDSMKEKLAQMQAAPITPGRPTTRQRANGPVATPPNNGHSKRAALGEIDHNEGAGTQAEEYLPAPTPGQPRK

AnCdc14 [12] = target: T5, AnCdc14; test: MS specificity constant assay; type: biochemical; details: pooled phosphopeptides 375 nM each, 1 to 1,000 nM Cdc14, pH 7.5, 30 °C; LC-MS; mean of 3 ± SD
MoCdc14 [13] = target: T1, MoCdc14; type: biochemical, Magnaporthe oryzae; details: phosphopeptide pS; pH 7.5, 30 °C; Biomol Green; mean of 3 ± SD
CzCdc14 [14] = test: MS specificity constant assay; type: biochemical, Cercospora zeina; details: pooled phosphopeptides 375 nM each, 1 to 1,000 nM Cdc14, pH 7.5, 30 °C; LC-MS; mean of 3 ± SD
Excerpt: as §2

UmCdc14 = test: MS specificity constant assay; type: biochemical, Ustilago maydis; details: pooled phosphopeptides 375 nM each, 1 to 1,000 nM Cdc14, pH 7.5, 30 °C; LC-MS; mean of 3 ± SD
Excerpt: as §2

ScCdc14 [15] = target: T2, ScCdc14; test: Phosphopeptide steady-state kinetics (Biomol Green); type: biochemical; details: phosphopeptide pS, pH 7.5, 30 °C, mean of 3 ± SD
Method: as §1

CgCdc14 [16] = target: T3, CgCdc14; test: as above; type: biochemical; details: phosphopeptide pS, pH 7.5, 30 °C, mean of 3 ± SD
Method: as §1

BcCdc14 [17] = target: T4, BcCdc14; test: as above; type: biochemical; details: phosphopeptide pS, pH 7.5, 30 °C, mean of 3 ± SD
Method: as §1

RsCdc14 [18] = target: T6, RsCdc14 (Rhizoctonia solani, UniProt L8WYM4); test: as above; type: biochemical; details: phosphopeptide pS, pH 7.5, 30 °C, mean of 3 ± SD
T6 sequence (L8WYM4 2-162 limits assumed): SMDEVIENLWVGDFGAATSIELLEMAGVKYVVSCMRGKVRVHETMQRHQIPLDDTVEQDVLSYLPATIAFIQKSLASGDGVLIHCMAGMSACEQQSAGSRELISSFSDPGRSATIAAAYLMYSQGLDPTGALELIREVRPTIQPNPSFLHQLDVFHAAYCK
Method: as §1

RsCdc14 [19] = target: T6, RsCdc14; test: MS specificity constant assay; type: biochemical; details: pooled phosphopeptides 375 nM each, 1 to 1,000 nM Cdc14, pH 7.5, 30 °C; LC-MS; mean of 3 ± SD
MoCdc14 [20] = target: T1, MoCdc14; type: biochemical, Magnaporthe oryzae; details: pooled phosphopeptides 375 nM each, 1 to 1,000 nM Cdc14, pH 7.5, 30 °C; LC-MS; mean of 3 ± SD

Compound: Cc1cc(=O)oc2c(F)c(OP(=O)(O)O)c(F)cc12 [DiFMUP]
- kcat (MoCdc14 [1]): 3 ± 0.5 s⁻¹
- kcat/KM (MoCdc14 [1]): 68,000 ± 6,100 M^−1 s^−1
- Km (CzCdc14 [2]): 66 ± 11 µM
- kcat (CzCdc14 [2]): 31 ± 2 s⁻¹
- kcat/KM (CzCdc14 [2]): 477,000 ± 10,600 M^−1 s^−1

Compound: CC(C)[C@H](NC(=O)[C@@H](N)CCC(=O)O)C(=O)N[C@@H](CC(F)(F)P(=O)(O)O)C(=O)N1CCC[C@H]1C(=O)N[C@H](C(=O)N[C@@H](CCCCN)C(=O)N[C@@H](CCCNC(=N)N)C(N)=O)[C@@H](C)O [pCF2Ser peptide, Glu-Val-pCF2Ser-Pro-Thr-Lys-Arg-amide] (H-EV[X1]PTKR-NH2)
- Ki (MoCdc14 [3]): 3.4 ± 1.2 µM
- Ki (ScCdc14 [4]): 3.2 ± 1 µM

Compound: O=[N+]([O-])c1ccc(OP(=O)(O)O)cc1 [pNPP, para-nitrophenyl phosphate]
- kcat (MoCdc14 [5]): 1.02 ± 0.03 s⁻¹
- kcat/KM (MoCdc14 [5]): 40 ± 2 M⁻¹ s⁻¹
- Km (CzCdc14 [6]): 25000 ± 2000 µM
- kcat (CzCdc14 [6]): 2.8 ± 0.1 s⁻¹
- kcat/KM (CzCdc14 [6]): 115 ± 6 M⁻¹ s⁻¹

Compound: HT[pS]PIKSIG
- Km (CzCdc14 [7]): 62 ± 14 µM
- kcat (CzCdc14 [7]): 2.1 ± 0.1 s⁻¹
- kcat/KM (CzCdc14 [7]): 34,000 ± 8,000 M^−1 s^−1
- kcat/KM of pSer-containing peptide higher than pThr-containing peptide (all Cdc14 homologs): > 1,000 fold
- kcat/KM of pSer-containing peptide higher than pTyr-containing peptide (all Cdc14 homologs): > 100 fold
- specificity constant kcat/KM (ScCdc14 [8]): 21,100 ± 1,400 M^−1 s^−1
- specificity constant kcat/KM (CgCdc14 [9]): 19,400 ± 1,800 M^−1 s^−1
- specificity constant kcat/KM (BcCdc14 [10]): 15,700 ± 1,200 M^−1 s^−1
- Km (AnCdc14 [11]): 194 ± 44 µM
- kcat (AnCdc14 [11]): 1.0 ± 0.1 s⁻¹
- kcat/KM (AnCdc14 [11]): 5,100 ± 800 M^−1 s^−1
- specificity constant kcat/KM (AnCdc14 [12]): 25,200 ± 2,200 M^−1 s^−1
- Km (MoCdc14 [13]): 63 ± 19 µM
- kcat (MoCdc14 [13]): 0.4 ± 0.02 s⁻¹
- kcat/KM (MoCdc14 [13]): 6,200 ± 1,700 M^−1 s^−1
- specificity constant kcat/KM (CzCdc14 [14]): 110,800 ± 10,600 M^−1 s^−1
- specificity constant kcat/KM (UmCdc14): 12,900 ± 3,300 M^−1 s^−1
- kcat (ScCdc14 [15]; 640 nm): 1.4 ± 0.1 s⁻¹
- Km (ScCdc14 [15]): 173 ± 21 µM
- kcat/KM (ScCdc14 [15]): 7,800 ± 300 M^−1 s^−1
- Km (CgCdc14 [16]): 351 ± 21 µM
- kcat (CgCdc14 [16]): 2.2 ± 0.1 s⁻¹
- kcat/KM (CgCdc14 [16]): 6,200 ± 200 M^−1 s^−1
- Km (BcCdc14 [17]): 297 ± 38 µM
- kcat/KM (BcCdc14 [17]): 3,400 ± 300 M^−1 s^−1
- Km (RsCdc14 [18]): 178 ± 52 µM
- kcat (RsCdc14 [18]): 0.52 ± 0.07 s⁻¹
- kcat/KM (RsCdc14 [18]): 3,000 ± 600 M^−1 s^−1
- specificity constant kcat/KM (RsCdc14 [19]): 17,300 ± 1,500 M^−1 s^−1
- specificity constant kcat/KM (MoCdc14 [20]): 17,000 ± 2,500 M^−1 s^−1
